Source: PMC3369139, “Preclinical evaluation of two ^68Ga-siderophores as potential radiopharmaceuticals for Aspergillus fumigatus infection imaging” (European Journal of Nuclear Medicine and Molecular Imaging, 2012)
Where “and” joins values, the source holds several entries; their conditions need not be identical. Identical values can stand only once.

Assays:
[1] = Protein binding in human serum; assay type: in vitro ADME
Description: (§1) TAFC and FOXE were labelled with ^68Ga using acetate buffer at room temperature for 15 min (TAFC) and at 80 °C for 20 min (FOXE). For all in vitro and in vivo studies, the pH of the final product was adjusted with 1.1 M sodium acetate to pH 6–7. The radiochemical purity, log P, protein binding and stability of ^68Ga-siderophores in various media were determined, as described previously.

Stability in human serum = assay type: in vitro ADME
Description: as §1

Stability in 0.1 M FeCl3 = assay type: physicochemical
Description: as §1

[2] = system: A. fumigatus wild-type ATCC46645; assay: In vitro uptake of ^68Ga-siderophores by A. fumigatus cultures; assay type: cell-based, Aspergillus fumigatus; conditions: room temperature; for Uptake by A. fumigatus in iron-deficient cultures: 5 ng ^68Ga-siderophore, 10-90 min, 96-well plates, filtration, γ-counter; for Blocking of uptake with excess of ferri-siderophore and/or sodium azide: iron-deficient cultures, 45 min incubation
Description: The Aspergillus strain used for in vitro studies was A. fumigatus wild-type ATCC46645 (American Type Culture Collection) cultured at 37 °C in Aspergillus minimal medium, containing 1 % glucose as the carbon source, 20 mM glutamine as the nitrogen source, salts and trace elements, as described previously. Iron-sufficient media contained […] FeSO4. For preparation of iron-deficient media, iron addition was omitted. Iron-deficient conditions were verified by detection of extracellular siderophore production, which is suppressed by iron.
Uptake by A. fumigatus in iron-deficient and iron-sufficient cultures was studied. For the monitoring of uptake over time, ^68Ga-siderophores (5 ng) were incubated in microbial media for 10, 20, 30, 45, 60 and 90 min at room temperature in 96-well plates (Millipore, Billerica, MA). For the monitoring of uptake blocking, excess of ferri-siderophore (Fe-TAFC or Fe-FOXE) and/or sodium azide was used. ^68Ga-siderophores were incubated in iron-deficient and iron-sufficient media for 45 min at room temperature in 96-well plates. The incubation was interrupted in both cases by filtration of the medium and rapid rinsing with ice-cold TRIS buffer. The filters were collected and counted in a γ-counter.

[3] = Biodistribution in normal Balb/c mice; assay type: in vivo; conditions: normal noninfected Balb/c mice, i.v. tail vein
Description: Normal noninfected Balb/c mice (female, 6 weeks old) were injected with ^68Ga-siderophore (2 MBq and 0.1–0.2 μg of siderophore per mouse) into the tail vein. Animals were killed by cervical dislocation 30 min and 90 min after injection. The organs and tissues (blood, spleen, pancreas, stomach, intestines, kidneys, liver, heart, lungs, muscle and femur) were removed and radioactivity was counted in a γ-counter. The results are expressed as percentage of injected dose per gram of tissue.

A. fumigatus [4] = assay: Ex vivo biodistribution in rat A. fumigatus infection model, standard; design: species or system Lewis rats; conditions: for Lung/blood ratio, control (mean ± sd) / Lung/blood ratio, mild infection (mean ± sd) / Lung/blood ratio, severe infection (mean ± sd) / Lung/kidneys ratio, control (mean ± sd) / Lung/kidneys ratio, mild infection (mean ± sd) / Lung/kidneys ratio, severe infection (mean ± sd) / Lung/liver ratio, control (mean ± sd) / Lung/liver ratio, mild infection (mean ± sd) / Lung/liver ratio, severe infection (mean ± sd): 2 h after injection; for Mild infection (%ID/g - lungs) (mean ± sd): mildly infected rats; for Mild infection (%ID/g - lungs) (mean ± sd) / Control (%ID/g - lungs) (mean ± sd) / Severe infection (%ID/g - lungs) (mean ± sd): lungs ex vivo 2 h after injection, n in cell; for Control (%ID/g - lungs) (mean ± sd): rats showing no infection; for Severe infection (%ID/g - lungs) (mean ± sd): severely infected rats, γ-counter
Description: The A. fumigatus (A29) isolate was grown on Sabouraud dextrose agar (BD) for 5 days at 37 °C, and the conidia were harvested in 2 ml of sterile NaCl by gently rubbing with a pipette tip. The conidia suspension was transferred into a sterile 50 ml plastic tube. After homogenization (vortex) and filtration (40 μm nylon cell strainer; BD), the suspension was counted in a Neubauer chamber and adjusted to the volitional concentration in the range 1 × 10^5 to 1 × 10^9 conidia per millilitre.
(§2) Female or male Lewis rats (2–3 months old), weighing 200–250 g, were treated as described previously. Briefly, the rats received repeated intraperitoneal injections of cyclophosphamide to induce neutropenia before A. fumigatus administration. To prevent bacterial superinfection, the animals were given antibiotics throughout the experiment. Fungal infection was established by intratracheal administration of 100–300 μl of A. fumigatus inoculum in various concentrations (1 × 10^5 to 1 × 10^9 conidia per millilitre). Animals were injected intravenously 1–3 days (depending on the severity of infection) after A. fumigatus administration with ^68Ga-labelled siderophore (10–20 MBq and 1–2 μg of siderophore per rat). The rats were imaged or killed by overdosing with thiopental (Sandoz, Kundl, Austria) 2 h after injection. Various organs and tissues (blood, spleen, kidneys, liver and lungs) were removed and radioactivity was measured in a γ-counter. The excised organs were investigated for the presence of fungi, as described below.
The excised organs were homogenized in a petri dish using a sterile surgical blade and transferred to Sabouraud dextrose agar (BD) plates. The plates were incubated at 37 °C and examined daily for 7 days. […] Severe infection was defined as the presence of severe fungal growth 1 day after incubation, mild infection was defined as the presence of minor growth up to 3 days after incubation, and no infection was defined as lack of growth within 1 week of incubation.

A. fumigatus [5] = assay: PET imaging in rat A. fumigatus infection model; assay type: in vivo, Lewis rats; conditions: infected rats, lungs, mean ± sd; for Target/non-target ratio: calculated from all PET imaging studies, n=13
Description: as §2
PET images were acquired with an Inveon animal PET/CT scanner (Siemens Preclinical Solutions, Knoxville, TN) with an intrinsic spatial resolution of 1.5 mm. The animals were placed in a prone position. Static PET images were acquired over 30 min starting 30 min after intravenous injection of ^68Ga-siderophore. Dynamic PET imaging was started upon injection and continued up to 60 min after injection. In addition, combined PET/CT scans were performed for anatomical reference. PET emission scans were acquired for 30 min, preceded by CT scans (spatial resolution 113 μm, 80 kV, 500 μA, exposure time 300 ms). After imaging, animals were killed by CO2/O2. Scans were reconstructed using Inveon Acquisition Workplace software (version 1.5; Siemens Preclinical Solutions, Knoxville, TN) using a 3-D ordered subset expectation maximization/maximum a posteriori (OSEM3D/MAP) algorithm with the following parameters: matrix 256 × 256 × 159, pixel size 0.43 × 0.43 × 0.8 mm^3 and a MAP prior β-value of 1.5.

Compound | Protein binding (%) ([1]; incubation time 30 min) | Protein binding (%) ([1]; incubation time 60 min) | Protein binding (%) ([1]; incubation time 120 min) | Stability in human serum (%) (Stability in human serum; incubation time 30 min) | Stability in human serum (%) (Stability in human serum; incubation time 60 min) | Stability in human serum (%) (Stability in human serum; incubation time 120 min) | Stability in 0.1-M FeCl3 (%) (Stability in 0.1 M FeCl3; incubation time 30 min) | Stability in 0.1-M FeCl3 (%) (Stability in 0.1 M FeCl3; incubation time 60 min) | Stability in 0.1-M FeCl3 (%) (Stability in 0.1 M FeCl3; incubation time 120 min) | Uptake by A. fumigatus in iron-deficient cultures [2] | Blocking of uptake with excess of ferri-siderophore and/or sodium azide [2] | Blood level ([3]; 30 min after injection) [%ID/g] | Intestinal accumulation ([3]; 30 min after injection) [%ID/g] | Intestinal accumulation ([3]; 90 min after injection) [%ID/g] | Lung/blood ratio, control (mean ± sd) (A. fumigatus [4]) | Lung/blood ratio, mild infection (mean ± sd) (A. fumigatus [4]) | Lung/blood ratio, severe infection (mean ± sd) (A. fumigatus [4]) | Lung/kidneys ratio, control (mean ± sd) (A. fumigatus [4]) | Lung/kidneys ratio, mild infection (mean ± sd) (A. fumigatus [4]) | Lung/kidneys ratio, severe infection (mean ± sd) (A. fumigatus [4]) | also measured
O=C1CCC(=O)N([O-])CCCCCNC(=O)CCC(=O)N([O-])CCCCCNC(=O)CCC(=O)N([O-])CCCCCN1.[68Ga+3] [^68Ga-FOXE, ferrioxamine E] | 0.27 | 0.24 | 0.53 | 99.9 | 99.9 | 99.9 | 92.9 | 91.8 | 94.5 | rapid uptake | could be blocked | 2.4 ± 0.86 | 4.6 ± 1.42 | 2.4 ± 0.85 | 1.48 ± 0.33 (n=5) | 5.45 ± 5.57 (n=4) | 62.35 ± 77.98 (n=5) | 0.07 ± 0.02 (n=5) | 0.38 ± 0.42 (n=4) | 3.33 ± 2.85 (n=5) | Stability in all of the tested media (Stability in human serum; human serum, 0.1 M FeCl3 and 6 mM DTPA, summary bound over all media): ≥ 90%; Lung/liver ratio, control (mean ± sd) (A. fumigatus [4]): 0.87 ± 0.27 (n=5); Lung/liver ratio, mild infection (mean ± sd) (A. fumigatus [4]): 5.45 ± 5.85 (n=4); Lung/liver ratio, severe infection (mean ± sd) (A. fumigatus [4]): 47.79 ± 39.48 (n=5); Mild infection (%ID/g - lungs) (mean ± sd) (A. fumigatus [4]): 0.48 ± 0.54 %ID/g and 0.48 ± 0.54 (n=4) %ID/g; Control (%ID/g - lungs) (mean ± sd) (A. fumigatus [4]): 0.04 ± 0.02 %ID/g and 0.04 ± 0.02 (n=5) %ID/g; Severe infection (%ID/g - lungs) (mean ± sd) (A. fumigatus [4]): 3.45 ± 1.00 (n=5) %ID/g; SUV (A. fumigatus [5]; calculated from PET imaging studies, n=10 (table)): 1.00 ± 0.81 (n=10); Target/non-target ratio (A. fumigatus [5]): 6.64 ± 2.91 (n=13)
CC(=O)NC1CCCN([O-])C(=O)C=C(C)CCOC(=O)C(NC(C)=O)CCCN([O-])C(=O)C=C(C)CCOC(=O)C(NC(C)=O)CCCN([O-])C(=O)C=C(C)CCOC1=O.[68Ga+3] (centres unmarked) [^68Ga-TAFC, triacetylfusarinine C] | 0.47 | 0.76 | 1.21 | 99.9 | 99.9 | 99.9 | 99.4 | 98.5 | 99.3 | rapid uptake | could be blocked | 1.6 ± 0.37 | 1.7 ± 1.04 | 1.0 ± 0.26 | 1.34 ± 0.22 (n=9) | 3.82 ± 2.89 (n=3) | 15.11 ± 11.37 (n=4) | 0.07 ± 0.03 (n=9) | 0.16 ± 0.14 (n=3) | 1.40 ± 0.76 (n=4) | Lung/liver ratio, control (mean ± sd) (A. fumigatus [4]): 0.84 ± 0.48 (n=9); Lung/liver ratio, mild infection (mean ± sd) (A. fumigatus [4]): 4.81 ± 2.70 (n=3); Lung/liver ratio, severe infection (mean ± sd) (A. fumigatus [4]): 14.29 ± 6.10 (n=4); Mild infection (%ID/g - lungs) (mean ± sd) (A. fumigatus [4]): 0.29 ± 0.12 %ID/g and 0.29 ± 0.12 (n=3) %ID/g; Control (%ID/g - lungs) (mean ± sd) (A. fumigatus [4]): 0.04 ± 0.01 %ID/g and 0.04 ± 0.01 (n=9) %ID/g; Severe infection (%ID/g - lungs) (mean ± sd) (A. fumigatus [4]): 0.95 ± 0.37 %ID/g and 0.95 ± 0.37 (n=4) %ID/g; Target/non-target ratio (A. fumigatus [5]): 5.81 ± 6.05 (n=13)
